Tested on: male Wistar rats
Test: Telemetry EEG study of NREM sleep (sleep latency and quality) in freely moving male Wistar rats
Format: in vivo
Conditions: for sleep latency / NREM sleep during the second hour following treatment / NREM sleep within the first hour following treatment: zolpidem
Protocol: Telemetric EEG, activity and temperature monitors were surgically implanted sub-coetaneously onto the lower backs of male Wistar rats, under ketamie and xyalsine (75/10 mg/kg, i.p.) anaesthesia. A skin incision was made above the scull and the transmitter tunnelled subcutaneously from the neck to the lower back with blunted scissors. The EEG leads were placed into two 0.5 mm holes that were drilled stererotaxically 2 mm anterior to Lambda and 1 mm to the left and right of centre, so that contact was made with the durra, and fixed with quick drying glue and reinforced with dental cement. The incision was then closed with 4-0 silk suture and post operative temgesic applied for pain relief. Following a 4 week recovery and acclimatization period in individually housed ventilated cages (12 hour light/12 hour dark cycle 20-25° C.), the rats were orally treated with either test compounds, positive controls or vehicle 45-30 min prior commencement of their light cycle (sleeping period). A Latin square dosing regiment was used where each rat received each of the drugs tested in random order with 4 days clearance time between each dosing. EEG waveforms were analysed using a power spectral analysis of each 5 second epoch and scored manually into % duration of NREM sleep for each hour over a 12 hour period. […] Data were analysed using Two-way ANOVA versus vehicle treatment (*p<0.05, n=7).

[1] = p.o., zopiclone 5 mg/kg, Compound Mixture 50 mg/kg, compared to vehicle
[2] = p.o., zopiclone 5 mg/kg, Compound Mixture 50 mg/kg, versus vehicle

| SMILES | NREM sleep during the remainder of the sleep period (5 mg/kg p.o., compared to vehicle) | sleep latency [1] | NREM sleep during the second hour following treatment [2] | NREM sleep within the first hour following treatment [2] | sleep quality during the 6th hour of sleep (5 mg/kg p.o., versus vehicle) | NREM sleep duration during the 8th hour [2] |
| --- | --- | --- | --- | --- | --- | --- |
| Cc1ccc(-c2nc3ccc(C)cn3c2CC(=O)N(C)C)cc1 [zolpidem] | failed to significantly improve NREM sleep | significantly reduce sleep latency | not significantly different from vehicle treatment | significantly increased | – | – |
| CN1CCN(C(=O)OC2c3nccnc3C(=O)N2c2ccc(Cl)cn2)CC1 (stereo not drawn) [zopiclone] | – | significantly reduce sleep latency | not significantly different from vehicle treatment | significantly increased | negative effect on sleep quality | significantly improved |
